Experimental data reported in US9926282B2, “Phthalazinones and isoquinolinones as rock inhibitors” (BRISTOL-MYERS SQUIBB COMPANY, priority 2013, dated 2018).

Legend:
ROCK1 = ROCK1 (Homo sapiens (Human), UniProt Q13464); test: ROCK assay (LABCHIP peptide phosphorylation), ROCK1; assay type: biochemical; conditions: 5 μM ATP, 1.5 μM peptide substrate; read-out: ROCK1 IC50
ROCK2 = ROCK2 (Homo sapiens (Human), UniProt O75116); test: ROCK assay (LABCHIP peptide phosphorylation), ROCK2; assay type: biochemical; conditions: 5 μM ATP, 1.5 μM peptide substrate
Sequence of ROCK2 (O75116 whole entry, species assumed): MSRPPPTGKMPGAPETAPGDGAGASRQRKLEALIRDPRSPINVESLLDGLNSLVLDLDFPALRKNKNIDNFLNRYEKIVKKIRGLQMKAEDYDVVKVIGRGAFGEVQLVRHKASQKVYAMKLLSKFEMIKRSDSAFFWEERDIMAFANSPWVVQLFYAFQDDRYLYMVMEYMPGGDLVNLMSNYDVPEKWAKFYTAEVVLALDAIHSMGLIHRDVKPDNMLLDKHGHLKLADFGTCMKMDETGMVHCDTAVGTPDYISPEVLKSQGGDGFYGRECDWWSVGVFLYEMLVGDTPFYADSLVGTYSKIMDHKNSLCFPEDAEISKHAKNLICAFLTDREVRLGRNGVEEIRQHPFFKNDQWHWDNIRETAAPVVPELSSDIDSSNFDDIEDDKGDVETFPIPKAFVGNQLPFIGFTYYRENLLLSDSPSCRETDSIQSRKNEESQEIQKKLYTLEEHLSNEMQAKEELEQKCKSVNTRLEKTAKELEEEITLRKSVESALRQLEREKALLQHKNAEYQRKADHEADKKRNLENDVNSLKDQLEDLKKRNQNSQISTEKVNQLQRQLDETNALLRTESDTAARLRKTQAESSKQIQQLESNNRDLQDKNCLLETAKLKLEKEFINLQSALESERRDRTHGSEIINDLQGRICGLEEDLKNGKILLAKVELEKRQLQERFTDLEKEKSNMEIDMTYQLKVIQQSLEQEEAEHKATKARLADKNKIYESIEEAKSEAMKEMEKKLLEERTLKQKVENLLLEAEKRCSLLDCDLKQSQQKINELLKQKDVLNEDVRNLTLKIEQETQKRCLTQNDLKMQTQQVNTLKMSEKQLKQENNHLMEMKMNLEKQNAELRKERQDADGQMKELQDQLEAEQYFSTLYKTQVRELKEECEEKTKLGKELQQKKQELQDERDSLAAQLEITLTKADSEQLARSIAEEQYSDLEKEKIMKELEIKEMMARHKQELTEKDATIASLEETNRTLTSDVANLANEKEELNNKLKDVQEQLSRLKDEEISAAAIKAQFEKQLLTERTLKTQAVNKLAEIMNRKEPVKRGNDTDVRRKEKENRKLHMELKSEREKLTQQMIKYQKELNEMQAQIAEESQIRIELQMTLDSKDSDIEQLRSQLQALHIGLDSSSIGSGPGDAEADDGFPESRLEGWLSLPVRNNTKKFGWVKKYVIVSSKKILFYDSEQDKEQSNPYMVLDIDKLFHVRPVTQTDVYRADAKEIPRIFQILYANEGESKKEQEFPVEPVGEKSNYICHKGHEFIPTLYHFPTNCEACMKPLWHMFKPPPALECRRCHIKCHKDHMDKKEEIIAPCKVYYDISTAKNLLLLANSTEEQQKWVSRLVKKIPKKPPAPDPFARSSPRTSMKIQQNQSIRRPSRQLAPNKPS

Sequence of ROCK1 (Q13464 whole entry, species assumed): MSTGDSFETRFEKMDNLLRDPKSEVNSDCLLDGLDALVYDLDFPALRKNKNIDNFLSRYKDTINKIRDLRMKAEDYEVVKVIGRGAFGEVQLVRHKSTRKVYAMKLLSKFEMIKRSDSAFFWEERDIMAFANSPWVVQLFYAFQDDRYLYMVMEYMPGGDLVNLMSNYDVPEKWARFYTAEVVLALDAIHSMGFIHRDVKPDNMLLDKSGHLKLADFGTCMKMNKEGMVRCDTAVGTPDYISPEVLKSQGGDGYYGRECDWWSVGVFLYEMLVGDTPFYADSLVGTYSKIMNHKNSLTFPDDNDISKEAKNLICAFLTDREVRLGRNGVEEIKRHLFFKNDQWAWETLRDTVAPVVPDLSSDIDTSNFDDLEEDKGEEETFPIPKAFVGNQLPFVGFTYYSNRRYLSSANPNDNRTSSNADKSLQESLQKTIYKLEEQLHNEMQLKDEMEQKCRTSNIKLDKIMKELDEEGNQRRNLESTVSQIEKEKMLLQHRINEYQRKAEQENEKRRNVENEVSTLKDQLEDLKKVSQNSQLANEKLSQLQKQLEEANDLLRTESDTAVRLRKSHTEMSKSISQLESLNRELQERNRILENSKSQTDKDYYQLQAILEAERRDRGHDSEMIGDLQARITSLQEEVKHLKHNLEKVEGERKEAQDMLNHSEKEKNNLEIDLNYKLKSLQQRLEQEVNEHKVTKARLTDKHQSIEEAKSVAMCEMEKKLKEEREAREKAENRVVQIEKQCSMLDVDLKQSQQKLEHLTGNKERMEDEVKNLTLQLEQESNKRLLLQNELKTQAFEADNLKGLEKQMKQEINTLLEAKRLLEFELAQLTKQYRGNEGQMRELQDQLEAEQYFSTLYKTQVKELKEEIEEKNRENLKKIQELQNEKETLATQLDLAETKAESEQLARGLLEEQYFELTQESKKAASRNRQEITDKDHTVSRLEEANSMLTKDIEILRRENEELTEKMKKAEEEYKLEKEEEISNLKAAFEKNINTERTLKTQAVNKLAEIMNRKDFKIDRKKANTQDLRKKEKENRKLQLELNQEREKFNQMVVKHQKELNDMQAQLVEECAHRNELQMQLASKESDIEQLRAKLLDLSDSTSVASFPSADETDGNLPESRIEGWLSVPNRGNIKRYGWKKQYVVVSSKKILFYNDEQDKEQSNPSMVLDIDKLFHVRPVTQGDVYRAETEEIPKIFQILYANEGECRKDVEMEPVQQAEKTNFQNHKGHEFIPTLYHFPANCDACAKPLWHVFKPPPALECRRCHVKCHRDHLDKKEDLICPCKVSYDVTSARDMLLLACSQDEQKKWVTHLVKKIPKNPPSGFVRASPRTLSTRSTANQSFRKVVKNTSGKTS

IC50 (ROCK1) [nM] | IC50 (ROCK2) [nM] | SMILES
101 to 1000 | 101 to 1000 | CC(C)c1c(C(=O)Nc2ccc(-c3n[nH]c(=O)c4ccccc34)cc2)nnn1-c1ccccc1 [Example 221, N-[4-(4-oxo-3,4-dihydrophthalazin-1-yl)phenyl]-1-phenyl-5-(propan-2-yl)-1H-1,2,3-triazole-4-carboxamide]
101 to 1000 | 0.1 to 100 | O=C(Nc1ccc(-c2n[nH]c(=O)c3ccccc23)cc1)C1CCN(c2ccc([N+](=O)[O-])cc2)CC1 [Example 54, 1-(4-nitrophenyl)-N-[4-(4-oxo-3,4-dihydrophthalazin-1-yl)phenyl]piperidine-4-carboxamide]
1000 to 50000 | 0.1 to 100 | CN1CCc2nc(C(=O)Nc3ccc(-c4n[nH]c(=O)c5ccccc45)cc3)sc2C1 [Example 51, 5-methyl-N-[4-(4-oxo-3,4-dihydrophthalazin-1-yl)phenyl]-4H,5H,6H, 7H-[1,3]thiazolo[5,4-c] pyridine-2-carboxamide]
101 to 1000 | 0.1 to 100 | Cc1cc(NC(=O)c2c3ccccc3nn2CCN(C)C)ccc1-c1n[nH]c(=O)c2ccccc12 [Example 304, 2-[2-(dimethylamino)ethyl]-N-[3-methyl-4-(4-oxo-3,4-dihydrophthalazin-1-yl)phenyl]-2H-indazole-3-carboxamide]
0.1 to 100 | 0.1 to 100 | O=C(Nc1ccc(-c2n[nH]c(=O)c3ccccc23)cc1)c1n[nH]c2ncccc12 [Example 110, N-[4-(4-oxo-3,4-dihydrophthalazin-1-yl)phenyl]-1H-pyrazolo[3,4-b]pyridine-3-carboxamide]
1000 to 50000 | 0.1 to 100 | O=C(Cc1ccc(-c2n[nH]c(=O)c3ccccc23)cc1)N1CCC(Cc2ccccc2)CC1 [Example 17, 4-{4-[2-(4-benzylpiperidin-1-yl)-2-oxoethyl]phenyl}-1,2-dihydrophthalazin-1-one]
0.1 to 100 | 0.1 to 100 | O=C(Nc1ccc(-c2n[nH]c(=O)c3ccccc23)cc1)c1cnn(-c2cccc(Cl)c2)c1 [Example 198, 1-(3-chlorophenyl)-N-[4-(4-oxo-3,4-dihydrophthalazin-1-yl)phenyl]-1H-pyrazole-4-carboxamide]
101 to 1000 | 0.1 to 100 | O=C(Nc1ccc(-c2n[nH]c(=O)c3ccccc23)cc1)c1n[nH]c(-c2ccccn2)n1 [Example 237, N-[4-(4-oxo-3,4-dihydrophthalazin-1-yl)phenyl]-5-(pyridin-2-yl)-1H-1,2,4-triazole-3-carboxamide]
101 to 1000 | 0.1 to 100 | O=C(Cc1ccc(-c2n[nH]c(=O)c3ccccc23)cc1)Nc1ccc2c(c1)OCCO2 [Example 24, N-(2,3-dihydro-1,4-benzodioxin-6-yl)-2-[4-(4-oxo-3,4-dihydrophthalazin-1-yl)phenyl]acetamide]

The remaining lines, values behind:

SMILES | IC50 (ROCK1) [nM] | IC50 (ROCK2) [nM]
O=C(Nc1ccc(-c2n[nH]c(=O)c3ccccc23)cc1)c1cnn(-c2ccccc2)c1 [Example 191, N-[4-(4-oxo-3,4-dihydrophthalazin-1-yl)phenyl]-1-phenyl-1H-pyrazole-4-carboxamide] | 0.1 to 100 | 0.1 to 100
O=C(Cc1ccc(-c2n[nH]c(=O)c3ccccc23)cc1)Nc1nncs1 [Example 29, 2-[4-(4-oxo-3,4-dihydrophthalazin-1-yl)phenyl]-N-(1,3,4-thiadiazol-2-yl)acetamide] | 1000 to 50000 | 0.1 to 100
Cc1cc(NC(=O)c2c[nH]c3ncc(F)cc23)ccc1-c1n[nH]c(=O)c2ccccc12 [Example 308, 5-fluoro-N-[3-methyl-4-(4-oxo-3,4-dihydrophthalazin-1-yl)phenyl]-1H-pyrrolo [2,3-b]pyridine-3-carboxamide] | 0.1 to 100 | 0.1 to 100
CC(C)(O)CNC(=O)CCn1nc(C(=O)Nc2ccc(-c3n[nH]c(=O)c4ccccc34)cc2)c2ccccc21 [Example 336, 1-(3-((2-Hydroxy-2-methylpropyl)amino)-3-oxopropyl)-N-(4-(4-oxo-3,4-dihydrophthalazin-1-yl)phenyl)-1H-indazole-3-carboxamide] | 0.1 to 100 | 0.1 to 100
COc1ccc2c(c1)N(C(=O)Nc1ccc(-c3c[nH]c(=O)c4cc(OC)c(OC)cc34)cc1)CC2 [Example 257, N-(4-(6,7-Dimethoxy-1-oxo-1,2-dihydroisoquinolin-4-yl)phenyl)-6-methoxyindoline-1-carboxamide] | 1000 to 50000 | 0.1 to 100
COc1ccc2c(c1)N(C(=O)Nc1ccc(-c3c[nH]c(=O)c4ccc(OC)cc34)cc1)CC2 [Example 268, 6-Methoxy-N-(4-(6-methoxy-1-oxo-1,2-dihydroisoquinolin-4-yl)phenyl)indoline-1-carboxamide] | 0.1 to 100 | 0.1 to 100
O=C(Nc1ccc(-c2n[nH]c(=O)c3ccccc23)cc1)C1Cc2ccccc2C1 [Example 44, N-(4-(4-Oxo-3,4-dihydrophthalazin-1-yl)phenyl)-2,3-dihydro-1H-indene-2-carboxamide] | 1000 to 50000 | 0.1 to 100
Cc1cc(CC(=O)N2CCc3ccccc32)ccc1-c1c[nH]c(=O)c2ccccc12 [Example 264, 4-(4-(2-(Indolin-1-yl)-2-oxoethyl)-2-methylphenyl)isoquinolin-1(2H)-one] | 0.1 to 100 | 0.1 to 100
COc1ccc2[nH]c(C(=O)Nc3ccc(-c4n[nH]c(=O)c5ccccc45)cc3)cc2c1 [Example 125, 5-methoxy-N-[4-(4-oxo-3,4-dihydrophthalazin-1-yl)phenyl]-1H-indole-2-carboxamide] | 0.1 to 100 | 0.1 to 100
O=C(Cc1ccc(-c2n[nH]c(=O)c3ccccc23)cc1)N1CCc2ccc(OCc3ccncc3)cc21 [Example 272, 4-(4-{2-oxo-2-[6-(pyridin-4-ylmethoxy)-2,3-dihydro-1H-indol-1-yl]ethyl}phenyl)-1,2-dihydrophthalazin-1-one] | 0.1 to 100 | 0.1 to 100
O=C(Nc1ccc(-c2n[nH]c(=O)c3ccccc23)cc1)c1cnn(CC(O)(C(F)(F)F)C(F)(F)F)c1 [Example 380, N-(4-(4-Oxo-3,4-dihydrophthalazin-1-yl)phenyl)-1-(3,3,3-trifluoro-2-hydroxy-2-(trifluoromethyl)propyl)-1H-pyrazole-4-carboxamide] | 101 to 1000 | 0.1 to 100
O=C(Cc1ccc(-c2n[nH]c(=O)c3ccccc23)cc1)N1CCN(c2ncccn2)CC1 [Example 15, 4-(4-{2-oxo-2-[4-(pyrimidin-2-yl)piperazin-1-yl]ethyl}phenyl)-1,2-dihydrophthalazin-1-one] | 1000 to 50000 | 1000 to 50000
COc1ccccc1-n1nnc(C(=O)Nc2ccc(-c3n[nH]c(=O)c4ccccc34)cc2)c1C [Example 405, 1-(2-Methoxyphenyl)-5-methyl-N-(4-(4-oxo-3,4-dihydrophthalazin-1-yl)phenyl)-1H-1,2,3-triazole-4-carboxamide] | 0.1 to 100 | 0.1 to 100
Cc1cc(CC(=O)N2Cc3ccccc3C2)ccc1-c1c[nH]c(=O)c2ccccc12 [Example 263, 4-(4-(2-(Isoindolin-2-yl)-2-oxoethyl)-2-methylphenyl)isoquinolin-1(2H)-one] | 101 to 1000 | 0.1 to 100
O=C(Cc1ccc(-c2n[nH]c(=O)c3ccccc23)cc1)N1Cc2ccc(F)cc2C1 [Example 2, 4-(4-(2-(5-Fluoroisoindolin-2-yl)-2-oxoethyl)phenyl)phthalazin-1 (2H)-one] | 101 to 1000 | 0.1 to 100
